We go through 4 compounds from article PMC4458427 (Journal of controlled release : official journal of the …, 2015).

The subject of data set [1] is A549 (lung carcinoma) cells. In words: MTT cytotoxicity, A549. In kind it is cell-based. The settings on record: Homo sapiens, A549, 72 h.
For data set [2], the system named is NCI/ADR-RES (multi-drug resistant ovarian adenocarcinoma) cells. In words: cells. The settings on record: 72 h. Format: cell-based.
For data set [3] the following is noted: mouse, in vivo, 1 mg/kg.
For data set [4] the following is noted: mouse; cited from earlier work.
The conditions of data set [5]: human; cited from earlier work.

Like-named read-outs stand apart in the source and are kept apart here. Where a SMILES comes first, the peptide text is derived from it.

As a reminder, the IC50 is the concentration that gives 50% inhibition. High values mean weaker potency, low ones greater potency.

Turning to `CC(=O)O[C@H]1C(=O)[C@@]2(C)[C@H]([C@H](OC(=O)c3ccccc3)[C@]3(O)C[C@H](OC(=O)[C@H](O)[C@@H](NC(=O)c4ccccc4)c4ccccc4)C(C)=C1C3(C)C)[C@]1(OC(C)=O)CO[C@@H]1C[C@@H]2O` [PTX, Paclitaxel], the IC50 in data set [1] came to 0.0036 µM; in data set [2] (Homo sapiens, NCI/ADR-RES), 9.7 µM. For the same compound, the “decrease in activity compared to the peptide conjugate” value in data set [2] (NCI/ADR-RES, MTT) is roughly 2 fold. In addition, the “tolerability at maximum soluble concentration” value in data set [3] is listed as “well tolerated”.

In data set [2], `CC(C)[C@H](NC(=O)[C@H](CCCCN)NC(=O)[C@@H](NC(=O)[C@H](CCCCN)NC(=O)[C@@H](NC(=O)[C@H](CCCCN)NC(=O)[C@@H](NC(=O)[C@@H]1CCCN1C(=O)[C@H]1CCCN1C(=O)[C@@H](NC(=O)[C@H](CCCCN)NC(=O)[C@@H](NC(=O)[C@H](CCCCN)NC(=O)[C@@H](NC(=O)[C@H](CCCCN)NC(=O)[C@@H](NC(=O)[C@@H](N)CCCCN)C(C)C)C(C)C)C(C)C)C(C)C)[C@@H](C)O)C(C)C)C(C)C)C(=O)N[C@@H](CCCCN)C(N)=O` [SVS-1] (HELM PEPTIDE1{K.V.K.V.K.V.K.V.[dP].P.T.K.V.K.V.K.V.K.[am]}$$$$V2.0) gave an IC50 of 3.21 µM. In other words, the single-digit micromolar range.

As for KKVVFKVKFKK-NH2 [KSLK], in data set [4], the reported half-life was 6 min.

On to YGRKKRRQRRR-NH2 [TAT], for which, in data set [5], the reported half-life is 3.5 min.
